Patent publication US20020082224A1, “NON-IMMUNOGENIC PRODRUGS AND SELECTABLE MARKERS FOR USE IN GENE THERAPY” (priority 1997, published 2002)

Columns and labels:
HT1080 cells = test: Tumor growth in nude mice inoculated with parental HT1080 cells, dosed with EP; type: in vivo, nude mice (Balb/c); settings: s.c. inoculation of 5e5 cells, EP dosed 2-10 days after inoculation
Procedure: (§1) hPLAP is able to convert the prodrugs, mitomycin phosphate (MOP) and etoposide phosphate (EP), into an active mitomycin C derivative, mitomycin alcohol, and etoposide. 5e5 HT1080 cells or HT/hPLAP cells (HT1080 cells stably expressing hPLAP) are inoculated subcutaneously into nude mice (Balb/c). Tumor development occurs in 7-14 days. Etoposide phosphate is prepared by the method of […] et al., Cancer Res. 49:5789-92, 1988, or obtained from a pharmacy (e.g., manufactured by Bristol-Myers Squibb). Animals are dosed with EP as described ([…] et al., 1988) 2-10 days after inoculation with cells.

[1] = tested on: HT/hPLAP cells (HT1080 cells stably expressing hPLAP); test: Tumor growth in nude mice inoculated with HT/hPLAP cells, dosed with EP; type: in vivo, nude mice (Balb/c)
Procedure: as §1

[2] = cited from earlier work
[3] = tested on: acute myeloblastic leukemia (AML); settings: as a single agent; % of patients; cited from earlier work

| SMILES | effect on tumors from parental HT1080 cells (HT1080 cells) | specificity of EP effect, HT1080 cells in one flank and HT/hPLAP cells in the contralateral flank ([1]; both cell types in the same animal) | effect on tumor growth of HT/hPLAP cells ([1]; s.c. inoculation of 5e5 cells, EP dosed 2-10 days after inoculation) | concentrations in the CSF relative to plasma ([2]; IV infusion, after 2 hours of continuous infusion) [%] | Plasma half life ([2]; due to rapid deamination) | remission induced in patients with acute myeloblastic leukemia (AML) [3] [%] |
| --- | --- | --- | --- | --- | --- | --- |
| COc1cc([C@@H]2c3cc4c(cc3[C@@H](O[C@@H]3O[C@@H]5CO[C@@H](C)O[C@H]5[C@H](O)[C@H]3O)[C@H]3COC(=O)[C@H]23)OCO4)cc(OC)c1OP(=O)(O)O [EP, etoposide phosphate] | resistant to the effect of EP | specific for cells expressing HPLAP | dose-dependent reduction in tumor growth | – | – | – |
| Nc1ccn([C@@H]2O[C@H](CO)[C@@H](O)[C@@H]2O)c(=O)n1 [ara-C, cytosine arabinoside] | – | – | – | 50 | less than 20 minutes | 50 |
